Test results published in patent US20240116985A1, “STAPLED PEPTIDES AND METHODS THEREOF” (priority 2020, published 2024).
In brackets after ≈: the same amount, converted by molar mass. Like-named read-outs stand apart in the source and are kept apart here. Starred links: 1 amine or outer side, 2 acyl side, 3 side chain; linkers in the order of their positions; H or OH if unused. Non-standard residues stand in square brackets, D forms with d. Residues, ends and D or L forms follow the SMILES beside them. X1 = C=CCOC(=O)N1CC[C@@](N[*:1])(C(=O)[*:2])C1; R8 = C=CCCCCCC[C@@](C)(N)C(=O)O

How the values were obtained:
CHI Log D procedure = assay type: physicochemical; details: for CHI Log D: pH 7.4
Solubility in PBS = assay type: physicochemical
Procedure, shortened: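 Solubility is derived from HPLC peak areas: the ratio of the PBS supernatant peak to a 50 μM DMSO peptide peak, times 50 uM.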

CHI Log D (CHI Log D procedure) | Solubility (Solubility in PBS) [µM] | SMILES | further results
2.364 | 50 (≈ 94.2 µg/mL) | CC[C@H](C)[C@@H]1NC(=O)[C@H](CC(=O)O)NC(=O)[C@]2(CC=CCCCC3(CCCC=CCCCCCC[C@@](C)(C(=O)N[C@@H](Cc4ccccc4)C(=O)N[C@@H](Cc4ccccc4)C(=O)N[C@@H](CCC(N)=O)C(N)=O)NC(=O)[C@H](CCC(N)=O)NC(=O)[C@H](Cc4csc5ccccc45)NC(=O)[C@H](C)NC(=O)[C@H](C)NC(=O)[C@H](CCC(=O)O)NC(=O)[C@H](CC(=O)O)NC3=O)NC1=O)CCCN2C(C)=O (stereo partly drawn) [I-585, Ac-PL3-Asp-Ile-B5-Asp-Glu-Ala-Ala-BztA-Gln-S8-Phe-Phe-Gln-NH2] | 
1.341 | 49 (≈ 90.3 µg/mL) | CC(=O)N1CCC[C@]12CC=CCCCC1(CCCC=CCCCCCC[C@@](C)(C(=O)N[C@@H](Cc3ccc(C(=O)O)cc3)C(=O)N[C@@H](Cc3csc4ccccc34)C(=O)N[C@@H](CCC(N)=O)C(N)=O)NC(=O)[C@H](C(C)C)NC(=O)[C@H](Cc3ccccc3)NC(=O)[C@H](C)NC(=O)[C@H](C)NC(=O)[C@H](CC(=O)O)NC(=O)[C@H](CC(=O)O)NC1=O)NC(=O)[C@H](C)NC(=O)[C@H](CC(=O)O)NC2=O (stereo partly drawn) [I-340, Ac-PL3-Asp-Ala-B5-Asp-Asp-Ala-Ala-Phe-Val-S8-4COOHF-BztA-Gln-NH2] | 
 | 50 (≈ 94.2 µg/mL) | CC[C@H](C)[C@@H]1NC(=O)[C@H](CC(=O)O)NC(=O)[C@]2(CC=CCCCC3(CCCC=CCCCCCC[C@@](C)(C(=O)N[C@@H](CC(=O)O)C(=O)N[C@@H](Cc4csc5ccccc45)C(=O)N[C@@H](CCC(N)=O)C(N)=O)NC(=O)[C@H](CCC(N)=O)NC(=O)[C@H](Cc4ccccc4)NC(=O)[C@H](C)NC(=O)[C@H](C)NC(=O)[C@H](CCC(=O)O)NC(=O)[C@H](Cc4ccccc4)NC3=O)NC1=O)CCCN2C(C)=O (stereo partly drawn) [I-587, Ac-PL3-Asp-Ile-B5-Phe-Glu-Ala-Ala-Phe-Gln-S8-Asp-BztA-Gln-NH2] | chromatographic logD (CHI Log D procedure; pH 7.4, CHI Log D): 2.15
2.6 | 29 (≈ 53 µg/mL) | CC(=O)N1CCC[C@]12CC=CCCCC1(CCCC=CCCCCCC[C@@](C)(C(=O)N[C@@H](Cc3ccccc3)C(=O)N[C@@H](Cc3csc4ccccc34)C(=O)N[C@@H](CCC(N)=O)C(N)=O)NC(=O)[C@H](CCC(N)=O)NC(=O)[C@H](Cc3ccccc3)NC(=O)[C@H](C)NC(=O)[C@H](C)NC(=O)[C@H](CCC(=O)O)NC(=O)[C@H](CCO)NC1=O)NC(=O)[C@H](C)NC(=O)[C@H](CC(=O)O)NC2=O (stereo partly drawn) [I-497, Ac-PL3-Asp-Ala-B5-Hse-Glu-Ala-Ala-Phe-Gln-S8-Phe-BztA-Gln-NH2] | 
2.868 | 17 (≈ 31.4 µg/mL) | CC(=O)N1CCC[C@]12CC=CCCCC1(CCCC=CCCCCCC[C@@](C)(C(=O)N[C@@H](Cc3cccc(F)c3F)C(=O)N[C@@H](Cc3csc4ccccc34)C(=O)N[C@@H](CCC(N)=O)C(N)=O)NC(=O)[C@H](C(C)C)NC(=O)[C@H](Cc3ccccc3)NC(=O)[C@H](C)NC(=O)[C@H](C)NC(=O)[C@H](CCC(=O)O)NC(=O)[C@H](CC(=O)O)NC1=O)NC(=O)[C@H](C)NC(=O)[C@H](CC(=O)O)NC2=O (stereo partly drawn) [I-389, Ac-PL3-Asp-Ala-B5-Asp-Glu-Ala-Ala-Phe-Val-S8-23FF-BztA-Gln-NH2] | 
2.554 | 50 (≈ 92.6 µg/mL) | CC[C@H](C)[C@@H]1NC(=O)[C@H](CC(=O)O)NC(=O)[C@]2(CC=CCCCC3(CCCC=CCCCCCC[C@@](C)(C(=O)N[C@@H](Cc4ccccc4)C(=O)N[C@@H](Cc4csc5ccccc45)C(=O)N4CCC[C@H]4C(N)=O)NC(=O)[C@H](CCC(N)=O)NC(=O)[C@H](Cc4ccccc4)NC(=O)[C@H](C)NC(=O)[C@H](C)NC(=O)[C@H](CCC(=O)O)NC(=O)[C@H](CC(=O)O)NC3=O)NC1=O)CCCN2C(C)=O (stereo partly drawn) [I-637, Ac-PL3-Asp-Ile-B5-Asp-Glu-Ala-Ala-Phe-Gln-S8-Phe-BztA-Pro-NH2] | 
2.456 | 41 (≈ 74.9 µg/mL) | CC(=O)N1CCC[C@]12CC=CCCCC1(CCCC=CCCCCCC[C@@](C)(C(=O)N[C@@H](Cc3ccccc3)C(=O)N[C@@H](Cc3csc4ccccc34)C(=O)N[C@@H](CCC(N)=O)C(N)=O)NC(=O)[C@H](CCC(N)=O)NC(=O)[C@H](Cc3ccccc3)NC(=O)[C@H](C)NC(=O)[C@H](C)NC(=O)[C@H](CCC(=O)O)NC(=O)[C@H](CCO)NC1=O)NC(=O)[C@H](C)NC(=O)[C@H](CC(=O)O)NC2=O (stereo partly drawn) [I-496, Ac-PL3-Asp-Ala-B5-Hse-Glu-Ala-Ala-Phe-Gln-S8-Phe-BztA-Gln-NH2] | 

More lines, now with the values behind:

SMILES | CHI Log D (CHI Log D procedure) | Solubility (Solubility in PBS) [µM] | further results
CC(=O)N1CCC[C@]12CC=CCCCC1(CCCC=CCCCCCC[C@@](C)(C(=O)N[C@@H](Cc3ccccc3)C(=O)N[C@@H](Cc3c[nH]c4ccccc34)C(=O)N[C@@H](CCC(N)=O)C(N)=O)NC(=O)[C@H](C(C)C)NC(=O)[C@H](Cc3ccccc3)NC(=O)[C@H](C)NC(=O)[C@H](C)NC(=O)[C@H](CC(=O)O)NC(=O)[C@H](CC(=O)O)NC1=O)NC(=O)[C@H](C)NC(=O)[C@H](C)NC2=O (stereo partly drawn) [I-349, Ac-PL3-Ala-Ala-B5-Asp-Asp-Ala-Ala-Phe-Val-S8-Phe-Trp-Gln-NH2] | 2.415 | 49 (≈ 85.1 µg/mL) | 
CC(=O)N1CCC[C@]12CC=CCCCC1(CCCC=CCCCCCC[C@@](C)(C(=O)N[C@@H](Cc3ccccc3)C(=O)N[C@@H](Cc3c[nH]c4ccccc34)C(=O)N[C@@H](CCC(N)=O)C(N)=O)NC(=O)[C@H](C(C)C)NC(=O)[C@H](Cc3ccccc3)NC(=O)[C@H](C)NC(=O)[C@H](C)NC(=O)[C@H](CC(=O)O)NC(=O)[C@H](CC(=O)O)NC1=O)NC(=O)[C@H](C)NC(=O)[C@H](C)NC2=O (stereo partly drawn) [I-348, Ac-PL3-Ala-Ala-B5-Asp-Asp-Ala-Ala-Phe-Val-S8-Phe-Trp-Gln-NH2] | 2.397 | 46 (≈ 79.9 µg/mL) | 
C=CCCCCCC[C@@](C)(NC(=O)[C@H](C)NC(=O)[C@H](CC(=O)O)NC(=O)[C@H](Cc1ccccc1)NC(C)=O)C(=O)N[C@@H](CC(=O)O)C(=O)N[C@@H](CC(=O)O)C(=O)N[C@@H](C)C(=O)N[C@@H](C)C(=O)N[C@@H](Cc1ccccc1)C(=O)N[C@@H](CCC(N)=O)C(=O)N[C@@]1(C(=O)N[C@@H](Cc2ccccc2)C(=O)N[C@@H](Cc2c[nH]c3ccccc23)C(=O)N[C@@H](CCC(N)=O)C(N)=O)CCN(C(=O)OCC=C)C1 [I-579, Ac-Phe-Asp-Ala-R8-Asp-Asp-Ala-Ala-Phe-Gln-PyrS-Phe-Trp-Gln-NH2] (Ac-FDA[R8]DDAAFQ[X1]FWQ-NH2) |  |  | chromatographic logD (CHI Log D procedure; pH 7.4, CHI Log D): 1.51; solubility at 15 min (Solubility in PBS; Solubility (uM)): 45 µM (≈ 84.6 µg/mL)
CC(=O)N1CCC[C@]12CC=CCCCC1(CCCC=CCCCCCC[C@@](C)(C(=O)N[C@@H](Cc3ccccc3)C(=O)N[C@@H](Cc3csc4ccccc34)C(=O)N[C@@H](CCC(N)=O)C(N)=O)NC(=O)[C@H](C)NC(=O)[C@H](Cc3c[nH]cn3)NC(=O)[C@H](C)NC(=O)[C@H](C)NC(=O)[C@H](CC(=O)O)NC(=O)[C@H](CC(=O)O)NC1=O)NC(=O)[C@H](C)NC(=O)[C@H](CC(=O)O)NC2=O (stereo partly drawn) [I-363, Ac-PL3-Asp-Ala-B5-Asp-Asp-Ala-Ala-His-Ala-S8-Phe-BztA-Gln-NH2] | 2.09 | 32 (≈ 56.3 µg/mL) | 
CC(=O)N1CCC[C@]12CC=CCCCC1(CCCC=CCCCCCC[C@@](C)(C(=O)N[C@@H](Cc3ccccc3)C(=O)N[C@@H](Cc3c[nH]c4ccccc34)C(=O)N[C@@H](CCC(N)=O)C(N)=O)NC(=O)[C@H](C(C)C)NC(=O)[C@H](Cc3ccccc3)NC(=O)[C@H](C)NC(=O)[C@H](C)NC(=O)[C@H](CC(=O)O)NC(=O)[C@H](C)NC1=O)NC(=O)[C@H](C)NC(=O)[C@H](CC(=O)O)NC2=O (stereo partly drawn) [I-351, Ac-PL3-Asp-Ala-B5-Ala-Asp-Ala-Ala-Phe-Val-S8-Phe-Trp-Gln-NH2] | 2.944 | 50 (≈ 86.9 µg/mL) | 
CC(=O)N1CCC[C@]12CC=CCCCC1(CCCC=CCCCOC(=O)N3CC[C@@](C(=O)N[C@@H](Cc4ccsc4)C(=O)N[C@@H](Cc4csc5ccccc45)C(=O)N[C@@H](CCC(N)=O)C(=O)N[C@@H](C)C(=O)N[C@@H](C)C(=O)N[C@H](C)C(N)=O)(C3)NC(=O)[C@H](CC(N)=O)NC(=O)[C@H](Cc3ccccc3)NC(=O)[C@H](C)NC(=O)[C@H](C)NC(=O)[C@H](CC(=O)O)NC(=O)[C@H](CC(=O)O)NC1=O)NC(=O)[C@H](CC(C)(C)C)NC(=O)[C@H](CC(=O)O)NC2=O (stereo partly drawn) [I-873, Ac-PL3-Asp-Npg-B5-Asp-Asp-Ala-Ala-Phe-Asn-PyrS2-3Thi-BztA-Gln-Ala-Ala] |  |  | logD (CHI Log D procedure; pH 7.4, CHI Log D): 2; Solubility (Solubility in PBS; Solubility (uM)): 47 µM (≈ 100 µg/mL)
CC(=O)N1CCC[C@]12CC=CCCCC1(CCCC=CCCCCCC[C@@](C)(C(=O)N[C@@H](Cc3ccccc3)C(=O)N[C@@H](Cc3c[nH]c4ccccc34)C(=O)N[C@@H](CCC(N)=O)C(N)=O)NC(=O)[C@H](C(C)C)NC(=O)C(Cc3cncn3C)NC(=O)[C@H](C)NC(=O)[C@H](C)NC(=O)[C@H](CC(=O)O)NC(=O)[C@H](CC(=O)O)NC1=O)NC(=O)[C@H](C)NC(=O)[C@H](CC(=O)O)NC2=O (single isomer, unassigned) [I-332, Ac-PL3-Asp-Ala-B5-Asp-Asp-Ala-Ala-3meH-Val-S8-Phe-Trp-Gln-NH2] | 2.038 |  | Solubility (Solubility in PBS; 15 min): 40 µM (≈ 71.4 µg/mL)
CC(=O)N1CCC[C@]12CC=CCCCC1(CCCC=CCCCCCC[C@@](C)(C(=O)N[C@@H](Cc3ccccc3)C(=O)N[C@@H](C)C(=O)N[C@@H](CCC(N)=O)C(N)=O)NC(=O)[C@H](C(C)C)NC(=O)[C@H](Cc3ccccc3)NC(=O)[C@H](C)NC(=O)[C@H](C)NC(=O)[C@H](CC(=O)O)NC(=O)[C@H](CC(=O)O)NC1=O)NC(=O)[C@H](C)NC(=O)[C@H](CC(=O)O)NC2=O (stereo partly drawn) [I-358, Ac-PL3-Asp-Ala-B5-Asp-Asp-Ala-Ala-Phe-Val-S8-Phe-Ala-Gln-NH2] | 1.882 | 50 (≈ 83.3 µg/mL) | 
